{
  "source": "patent US20220264878A1",
  "about": "“HERBICIDAL COMPOSITION CONTAINING R-TYPE PYRIDYLOXY CARBOXYLIC ACID DERIVATIVE AND USE THEREOF” (Qingdao Kingagroot Chemical Compound Co., Ltd., priority 2019, published 2022)",
  "key": {"Echinochloa caudate": {"tested_on": "Echinochloa caudate", "test": "Post-emergence foliage spray, pot culture, fresh weight inhibition (Tables 1-48, 51-98, 101-148; 24 days)", "format": "in vivo", "description": "(§1) The above weeds were cultivated by a pot culture method. […] Full and uniform weed seeds were selected, soaked in warm water at 25° C. for 6 hours, and germinated in a 28° C. biochemical incubator (darkness). The weed seeds that had just germinatedwere evenly placed on the surface of the soil and then covered with 0.5-1 cm soil according to the sizes of seeds.\n(§2) The technical materials were all dissolved in acetone, and diluted with an aqueous solution containing 0.1% emulsifier Tween-80. The dilution is performed as required.\n(§3) A ratio of the active ingredient A to the active ingredient B and amounts thereof in each group depends on the characteristics and toxicity of the two agents, as well as the main application purpose of a corresponding formulation. Based on the pre-tests in this study, the dosage of the active ingredient A and B applied alone and in combination were shown in the tables. Water containing the solvent and emulsifier same with the above groups but free of the agents was used as a blank control.\n(§4) In the stage of weeds with 3˜4 leaves, the weeds were thinned out to maintain 15 weeds per pot and 45 weeds for each treatment, then continued to be cultured to 5˜6 leaves stage of grassy weeds, 6˜7 leaves stage of broadleaf weeds, and treated.\n(§5) The well-cultured weeds were evenly placed on a platform with an area of 0.5 m^2, and a solution of agents was sprayed on the stems and leaves thereof by the 3WP-2000-type walking spray tower at a dosage of 450 kg/ha and at a spray pressure of 0.3 MPa. After all the solution was sprayed, the valve was closed. After 30 seconds, the door of the spray tower was opened, and the nutritional bowl was taken out. Then the valve was opened, and the spray tube was cleaned by spraying 50 ml of water.\n(§6) A pot-culture method was employed. For the cultivation of weeds, please refer to the Section 1.1), and “Pesticide guidelines for laboratory bioactivity tests—herbicides”. As to a method for applying agents, please refer to the section 2.3.2), that is, a foliage treatment was employed. After the treatment, the weeds were routinely cultured in a greenhouse.\n(§7) A method for investigating absolute number was employed, wherein whole seedlings of survival weeds were cut off with a blade along the soil surface, and the fresh weight of the weeds was weighed with an analytical balance. For dead weeds, the fresh weight thereof was zero.\n(§8) Wherein, in the formula, X represented the fresh weight inhibition rate of the active ingredient A in a dosage of P, and Y represented the fresh weight inhibition rate of the active ingredient B in a dosage of Q."}, "Echinochloa oryzoides": {"tested_on": "Echinochloa oryzoides", "test": "Post-emergence foliage spray, pot culture, fresh weight inhibition (Tables 1-48, 51-98, 101-148; 24 days)", "format": "in vivo", "description": "as §1, §2, §3, §4, §5, §6, §7, §8"}, "[1]": {"conditions": "Echinochloa, 576 h, read-out: Control effect (%) of B applied alone in corresponding dose"}, "[2]": {"conditions": "Echinochloa oryzoides, 576 h, read-out: Control effect (%) of B applied alone in corresponding dose"}},
  "note": "Where two headings read alike, the source gives them in different places.",
  "data": [
    {"smiles": "CS(=O)(=O)c1cc(C(F)(F)F)ccc1C(=O)c1cnoc1C1CC1", "note": "[isoxaflutole]", "values": [
      {"measurement": "pest or weed control at 7.5 g/ha", "setting": "Echinochloa caudate; Echinochloa, 576 h, Table 85, 7.5 g a.i./ha, read-out: Control effect (%) of B applied alone in corresponding dose", "value": 2.1, "unit": "%"},
      {"measurement": "pest or weed control at 15 g/ha", "setting": "Echinochloa caudate; Echinochloa, 576 h, Table 85, 15 g a.i./ha, read-out: Control effect (%) of B applied alone in corresponding dose", "value": 14.3, "unit": "%"},
      {"measurement": "pest or weed control at 30 g/ha", "setting": "Echinochloa caudate; Echinochloa, 576 h, Table 85, 30 g a.i./ha, read-out: Control effect (%) of B applied alone in corresponding dose", "value": 47.9, "unit": "%"},
      {"measurement": "pest or weed control at 60 g/ha", "setting": "Echinochloa caudate; Echinochloa, 576 h, Table 85, 60 g a.i./ha, read-out: Control effect (%) of B applied alone in corresponding dose", "value": 63.6, "unit": "%"},
      {"measurement": "pest or weed control at 7.5 g/ha", "setting": "Echinochloa oryzoides; Echinochloa oryzoides, 576 h, B 7.5 g a.i./ha, read-out: Control effect (%) of B applied alone in corresponding dose", "value": 8.1, "unit": "%"},
      {"measurement": "pest or weed control at 15 g/ha", "setting": "Echinochloa oryzoides; Echinochloa oryzoides, 576 h, B 15 g a.i./ha, read-out: Control effect (%) of B applied alone in corresponding dose", "value": 19.6, "unit": "%"},
      {"measurement": "pest or weed control at 30 g/ha", "setting": "Echinochloa oryzoides; Echinochloa oryzoides, 576 h, B 30 g a.i./ha, read-out: Control effect (%) of B applied alone in corresponding dose", "value": 50.6, "unit": "%"},
      {"measurement": "pest or weed control at 60 g/ha", "setting": "Echinochloa oryzoides; Echinochloa oryzoides, 576 h, B 60 g a.i./ha, read-out: Control effect (%) of B applied alone in corresponding dose", "value": 65.5, "unit": "%"}
    ]},
    {"smiles": "CCC/C(=N\\OCC)C1=C(O)CC(CC(C)SCC)CC1=O", "note": "(stereo not drawn) [sethoxydim]", "values": [
      {"measurement": "pest or weed control at 15 g/ha", "setting": "Echinochloa caudate; [1]", "value": 5.1, "unit": "%"},
      {"measurement": "pest or weed control at 30 g/ha", "setting": "Echinochloa caudate; [1]", "value": 21.5, "unit": "%"},
      {"measurement": "pest or weed control at 60 g/ha", "setting": "Echinochloa caudate; [1]", "value": 42.6, "unit": "%"},
      {"measurement": "pest or weed control at 120 g/ha", "setting": "Echinochloa caudate; [1]", "value": 61.6, "unit": "%"},
      {"measurement": "pest or weed control at 15 g/ha", "setting": "Echinochloa oryzoides; [2]", "value": 5.5, "unit": "%"},
      {"measurement": "pest or weed control at 30 g/ha", "setting": "Echinochloa oryzoides; [2]", "value": 13.8, "unit": "%"},
      {"measurement": "pest or weed control at 60 g/ha", "setting": "Echinochloa oryzoides; [2]", "value": 35.4, "unit": "%"},
      {"measurement": "pest or weed control at 120 g/ha", "setting": "Echinochloa oryzoides; [2]", "value": 68.4, "unit": "%"}
    ]},
    {"smiles": "CCCCOC(=O)[C@@H](C)Oc1ccc(Oc2ccc(C(F)(F)F)cn2)cc1", "note": "[fluazifop-P-butyl]", "values": [
      {"measurement": "Control effect (%) of B applied alone in corresponding dose", "setting": "Echinochloa caudate; fluazifop-P-butyl 3.75 g a.i./ha", "value": 4.2, "unit": "%"},
      {"measurement": "Control effect (%) of B applied alone in corresponding dose", "setting": "Echinochloa caudate; fluazifop-P-butyl 7.5 g a.i./ha", "value": 13.9, "unit": "%"},
      {"measurement": "Control effect (%) of B applied alone in corresponding dose", "setting": "Echinochloa caudate; fluazifop-P-butyl 15 g a.i./ha", "value": 38.4, "unit": "%"},
      {"measurement": "Control effect (%) of B applied alone in corresponding dose", "setting": "Echinochloa caudate; fluazifop-P-butyl 30 g a.i./ha", "value": 74.1, "unit": "%"},
      {"measurement": "Control effect (%) of B applied alone in corresponding dose", "setting": "Echinochloa oryzoides; B 3.75 g a.i./ha", "value": 5.5, "unit": "%"},
      {"measurement": "Control effect (%) of B applied alone in corresponding dose", "setting": "Echinochloa oryzoides; B 7.5 g a.i./ha", "value": 14.2, "unit": "%"},
      {"measurement": "Control effect (%) of B applied alone in corresponding dose", "setting": "Echinochloa oryzoides; B 15 g a.i./ha", "value": 32.9, "unit": "%"},
      {"measurement": "Control effect (%) of B applied alone in corresponding dose", "setting": "Echinochloa oryzoides; B 30 g a.i./ha", "value": 71.5, "unit": "%"}
    ]},
    {"smiles": "CCSC(C)CC1CC(=O)C(/C(CC)=N/OC/C=C/Cl)=C(O)C1", "note": "(stereo not drawn) [clethodim]", "values": [
      {"measurement": "pest or weed control at 7.5 g/ha", "setting": "Echinochloa caudate; [1]", "value": 3.4, "unit": "%"},
      {"measurement": "pest or weed control at 15 g/ha", "setting": "Echinochloa caudate; [1]", "value": 27, "unit": "%"},
      {"measurement": "pest or weed control at 30 g/ha", "setting": "Echinochloa caudate; [1]", "value": 43.8, "unit": "%"},
      {"measurement": "pest or weed control at 60 g/ha", "setting": "Echinochloa caudate; [1]", "value": 67.4, "unit": "%"},
      {"measurement": "pest or weed control at 7.5 g/ha", "setting": "Echinochloa oryzoides; [2]", "value": 6.7, "unit": "%"},
      {"measurement": "pest or weed control at 15 g/ha", "setting": "Echinochloa oryzoides; [2]", "value": 19, "unit": "%"},
      {"measurement": "pest or weed control at 30 g/ha", "setting": "Echinochloa oryzoides; [2]", "value": 37.8, "unit": "%"},
      {"measurement": "pest or weed control at 60 g/ha", "setting": "Echinochloa oryzoides; [2]", "value": 62.7, "unit": "%"}
    ]},
    {"smiles": "CS(=O)(=O)c1ccc(C(=O)C2=C(Sc3ccccc3)C3CCC(C3)C2=O)c(Cl)c1", "note": "(stereo not drawn) [benzobicylon]", "values": [
      {"measurement": "Control effect (%) of B applied alone in corresponding dose", "setting": "Echinochloa caudate; Table 86, 37.5 g a.i./ha", "value": 2.1, "unit": "%"},
      {"measurement": "Control effect (%) of B applied alone in corresponding dose", "setting": "Echinochloa caudate; Table 86, 75 g a.i./ha", "value": 11.7, "unit": "%"},
      {"measurement": "Control effect (%) of B applied alone in corresponding dose", "setting": "Echinochloa caudate; Table 86, 150 g a.i./ha", "value": 43.3, "unit": "%"},
      {"measurement": "Control effect (%) of B applied alone in corresponding dose", "setting": "Echinochloa caudate; Table 86, 300 g a.i./ha", "value": 54.4, "unit": "%"},
      {"measurement": "Control effect (%) of B applied alone in corresponding dose", "setting": "Echinochloa oryzoides; B 37.5 g a.i./ha", "value": 9.3, "unit": "%"},
      {"measurement": "Control effect (%) of B applied alone in corresponding dose", "setting": "Echinochloa oryzoides; B 75 g a.i./ha", "value": 18.0, "unit": "%"},
      {"measurement": "Control effect (%) of B applied alone in corresponding dose", "setting": "Echinochloa oryzoides; B 150 g a.i./ha", "value": 46.6, "unit": "%"},
      {"measurement": "Control effect (%) of B applied alone in corresponding dose", "setting": "Echinochloa oryzoides; B 300 g a.i./ha", "value": 57.3, "unit": "%"}
    ]},
    {"smiles": "CC1(C)CON(Cc2ccccc2Cl)C1=O", "note": "[clomazone]", "values": [
      {"measurement": "pest or weed control at 45 g/ha", "setting": "Echinochloa caudate; Echinochloa, 576 h, Table 89, 45 g a.i./ha, read-out: Control effect (%) of B applied alone in corresponding dose", "value": 8.6, "unit": "%"},
      {"measurement": "pest or weed control at 90 g/ha", "setting": "Echinochloa caudate; Echinochloa, 576 h, Table 89, 90 g a.i./ha, read-out: Control effect (%) of B applied alone in corresponding dose", "value": 19, "unit": "%"},
      {"measurement": "pest or weed control at 180 g/ha", "setting": "Echinochloa caudate; Echinochloa, 576 h, Table 89, 180 g a.i./ha, read-out: Control effect (%) of B applied alone in corresponding dose", "value": 47.7, "unit": "%"},
      {"measurement": "pest or weed control at 360 g/ha", "setting": "Echinochloa caudate; Echinochloa, 576 h, Table 89, 360 g a.i./ha, read-out: Control effect (%) of B applied alone in corresponding dose", "value": 70.1, "unit": "%"},
      {"measurement": "pest or weed control at 45 g/ha", "setting": "Echinochloa oryzoides; Echinochloa oryzoides, 576 h, B 45 g a.i./ha, read-out: Control effect (%) of B applied alone in corresponding dose", "value": 8.6, "unit": "%"},
      {"measurement": "pest or weed control at 90 g/ha", "setting": "Echinochloa oryzoides; Echinochloa oryzoides, 576 h, B 90 g a.i./ha, read-out: Control effect (%) of B applied alone in corresponding dose", "value": 12.9, "unit": "%"},
      {"measurement": "pest or weed control at 180 g/ha", "setting": "Echinochloa oryzoides; Echinochloa oryzoides, 576 h, B 180 g a.i./ha, read-out: Control effect (%) of B applied alone in corresponding dose", "value": 50.9, "unit": "%"},
      {"measurement": "pest or weed control at 360 g/ha", "setting": "Echinochloa oryzoides; Echinochloa oryzoides, 576 h, B 360 g a.i./ha, read-out: Control effect (%) of B applied alone in corresponding dose", "value": 72.1, "unit": "%"}
    ]}
  ]
}
